Results published in patent US9518284B2 (priority 2001, dated 2016).
Read-outs that look alike come from different tables or passages of the source.

System: yeast cells overexpressing WT alpha-synuclein
Type: cell-based, Saccharomyces cerevisiae
[1] = preliminary study, concentration not given
[2] = preliminary study, agent at 5 μM

bleomycin
effect on the growth of yeast cells overexpressing WT alpha-synuclein (agent at 1 μg/ml): negative effect on the growth

Cl.N=C(N)N [GuHCl]
effect on the growth of yeast cells overexpressing WT alpha-synuclein (agent at 20 (unit not given)): negative effect on the growth

[Cl-].[Cl-].[Mg+2] [MgCl2]
effect on the growth of yeast cells overexpressing WT alpha-synuclein (agent at 0.5 M): negative effect on the growth

protamine sulphate
ability to alleviate toxicity caused by alpha-synuclein overexpression (preliminary study, agent at 250 μM): alleviate toxocity

[Cl-].[Cl-].[Co+2] [CoCl2]
effect on the growth of yeast cells overexpressing WT alpha-synuclein: negative effect on the growth

NC=O [formamide]
effect on the growth of yeast cells overexpressing WT alpha-synuclein (agent at 2% in medium): negative effect on the growth

O=S(=O)([O-])[O-].[Fe+2] [FeSO4]
effect on the growth of yeast cells overexpressing WT alpha-synuclein (agent at 20 mM): negative effect on the growth

[Cl-].[Cs+] [CsCl]
effect on the growth of yeast cells overexpressing WT alpha-synuclein (agent at 0.1 M): negative effect on the growth

C[n+]1ccc(-c2cc[n+](C)cc2)cc1 [paraquat]
effect on the growth of yeast cells overexpressing WT alpha-synuclein (agent at 1 mM): negative effect on the growth

O=S(=O)([O-])[O-].[Cu+2] [CuSo4]
effect on the growth of yeast cells overexpressing WT alpha-synuclein (agent at 2.5 mM): negative effect on the growth
effect on the growth of yeast cells overexpressing WT alpha-synuclein (agent at 5 mM): negative effect on the growth

[Ca+2].[Cl-].[Cl-] [CaCl2]
effect on the growth of yeast cells overexpressing WT alpha-synuclein (agent at 0.5 M): negative effect on the growth

C[C@@H](O)CC(=O)O [(R)-(−)-3-hydroxybutirate]
ability to alleviate toxicity caused by alpha-synuclein overexpression [1]: alleviate toxocity

O=c1cn[nH]c(=O)[nH]1 [6-azauracil]
effect on the growth of yeast cells overexpressing WT alpha-synuclein (agent at 30 μg/ml): negative effect on the growth

CC[C@@]1(O)C(=O)OCc2c1cc1n(c2=O)Cc2cc3ccccc3nc2-1 [camptothecin]
effect on the growth of yeast cells overexpressing WT alpha-synuclein (agent at 5 μg/ml): negative effect on the growth
ability to alleviate toxicity caused by alpha-synuclein overexpression (preliminary study, agent at 0.1 μg/ml): alleviate toxocity

[Cl-].[Rb+] [RbCl]
effect on the growth of yeast cells overexpressing WT alpha-synuclein (agent at 0.2 M): negative effect on the growth

CN[C@H]1C[C@@H](N)[C@H](O)[C@@H](O[C@@H]2O[C@H](CO)[C@H](O)[C@@H]3OC4(O[C@H]23)O[C@H]([C@@H](N)CO)[C@H](O)[C@H](O)[C@H]4O)[C@@H]1O (some centres unmarked) [Hygromycin B]
ability to alleviate toxicity caused by alpha-synuclein overexpression (preliminary study, agent at 50 μg/ml): alleviate toxocity

O=C(O)c1cc(/N=N/c2ccc(-c3ccc(/N=N/c4ccc(O)c(C(=O)O)c4)cc3)cc2)ccc1O [chrysamine G]
ability to alleviate toxicity caused by alpha-synuclein overexpression (preliminary study, agent at 1.0 μM): alleviate toxocity

O=C(O)CCCc1ccc(N(CCCl)CCCl)cc1 [chlorambucil]
effect on the growth of yeast cells overexpressing WT alpha-synuclein (agent at 3 mM): negative effect on the growth

CCSCC[C@H](N)C(=O)O [L-ethionine]
ability to alleviate toxicity caused by alpha-synuclein overexpression (preliminary study, agent at 1 μg/ml): alleviate toxocity

O=C[C@@H](O)[C@H](O)[C@H](O)CO [arabinose]
effect on the growth of yeast cells overexpressing WT alpha-synuclein (agent at 2% in medium): negative effect on the growth

Nc1c(/N=N/c2ccc(-c3ccc(/N=N/c4cc(S(=O)(=O)O)c5ccccc5c4N)cc3)cc2)cc(S(=O)(=O)O)c2ccccc12 [Congo Red]
ability to alleviate toxicity caused by alpha-synuclein overexpression [2]: alleviate toxocity

NC(=O)NO [hydroxyurea]
effect on the growth of yeast cells overexpressing WT alpha-synuclein (agent at 5 mg/ml): negative effect on the growth

O=S(=O)([O-])[O-].O=S(=O)([O-])[O-].O=S(=O)([O-])[O-].[Fe+3].[Fe+3] [Fe2(SO4)3]
effect on the growth of yeast cells overexpressing WT alpha-synuclein (agent at 8.5 mM): negative effect on the growth

N[C@@H](CCC(=O)N[C@@H](CS)C(=O)NCC(=O)O)C(=O)O [glutathione]
ability to alleviate toxicity caused by alpha-synuclein overexpression: alleviate toxocity

C=CCC(N)C(=O)O (racemic) [DL-C-allylglycine]
ability to alleviate toxicity caused by alpha-synuclein overexpression (preliminary study, agent at 0.025 mg/ml): alleviate toxocity

[Cl-].[Cl-].[Sr+2] [SrCl2]
effect on the growth of yeast cells overexpressing WT alpha-synuclein (agent at 0.5 M): negative effect on the growth

N[C@@H](CO)C(=O)O [serine]
ability to alleviate toxicity caused by alpha-synuclein overexpression (preliminary study, agent at 1 mg/ml): alleviate toxocity

CCN(CC)CCCC(C)Nc1ccnc2cc(Cl)ccc12 (centres unmarked) [chloroquine]
ability to alleviate toxicity caused by alpha-synuclein overexpression (preliminary study, agent at 4.2 μM): alleviate toxocity

CC1=CC(=O)c2ccccc2C1=O [menadione]
effect on the growth of yeast cells overexpressing WT alpha-synuclein (agent at 20-50 μM): negative effect on the growth

O=S(=O)([O-])[O-].[Mg+2] [MgSO4]
effect on the growth of yeast cells overexpressing WT alpha-synuclein (agent at 0.5 M): negative effect on the growth

NC[C@@H]1O[C@H](O[C@H]2[C@@H](O)[C@H](O[C@@H]3[C@@H](O)[C@H](N)C[C@H](N)[C@H]3O[C@H]3O[C@H](CO)[C@@H](O)[C@H](O)[C@H]3N)O[C@@H]2CO)[C@H](N)[C@@H](O)[C@@H]1O [paromomycin]
ability to alleviate toxicity caused by alpha-synuclein overexpression (preliminary study, agent at 200 μg/ml): alleviate toxocity

C[C@]12CC[C@H]3[C@@H](CCC4=CC(=O)CC[C@@]43C)[C@@H]1CC[C@@H]2C(=O)CO [Deoxycorticosterone]
ability to alleviate toxicity caused by alpha-synuclein overexpression [1]: alleviate toxocity

N[C@@H](Cc1ccc(O)c(O)c1)C(=O)O [L-DOPA, L-dihydroxyphenylalanine]
ability to alleviate toxicity caused by alpha-synuclein overexpression [1]: alleviate toxocity

NC(N)=O [urea]
effect on the growth of yeast cells overexpressing WT alpha-synuclein (agent at 1 mg/ml): negative effect on the growth

Oc1c(I)cc(Cl)c2cccnc12 [clioquinol]
ability to alleviate toxicity caused by alpha-synuclein overexpression [2]: alleviate toxocity

[Cl][Fe][Cl] [FeCl2]
effect on the growth of yeast cells overexpressing WT alpha-synuclein (agent at 10 mM): negative effect on the growth
effect on the growth of yeast cells overexpressing WT alpha-synuclein (agent at 15 mM): negative effect on the growth
effect on the growth of yeast cells overexpressing WT alpha-synuclein (agent at 23 mM): negative effect on the growth
effect on the growth of yeast cells overexpressing WT alpha-synuclein (agent at 50 mM): negative effect on the growth

[O]=[V]([O-])([O-])[O-] [vanadate]
effect on the growth of yeast cells overexpressing WT alpha-synuclein (agent at 0.1 mM): negative effect on the growth
effect on the growth of yeast cells overexpressing WT alpha-synuclein (agent at 1 mM): negative effect on the growth
effect on the growth of yeast cells overexpressing WT alpha-synuclein (agent at 2 mM): negative effect on the growth
effect on the growth of yeast cells overexpressing WT alpha-synuclein (agent at 4 mM): negative effect on the growth
effect on the growth of yeast cells overexpressing WT alpha-synuclein (agent at 7 mM+KCl): negative effect on the growth

C[C@H]1CCC/C=C/[C@@H]2C[C@H](O)C[C@H]2[C@H](O)/C=C/C(=O)O1 [brefeldin A]
effect on the growth of yeast cells overexpressing WT alpha-synuclein (agent at 100 μg/ml): negative effect on the growth
